From patent US20260224588A1, “BENZODIAZEPINONE-DERIVED INHIBITORS OF EGFR AND HER2” (The Research Foundation for the State University of New York, priority 2023, published 2026)

Tests used:
PRKCD = PRKCD (Homo sapiens, UniProt Q05655); assay: KINOMEscan; format: binding; conditions: 1 μM of compound 4; read-out: POC
PFTAIRE2 = molecular target: T1, PFTAIRE2 (Homo sapiens, UniProt Q96Q40); assay: KINOMEscan; format: binding; conditions: 1 μM of compound 4; read-out: POC
T1 construct: purchased Eurofins DiscoverX Corporation (KINOMEscan)

JNK3 = JNK3 (Homo sapiens, UniProt P53779); assay: KINOMEscan; format: binding; conditions: 1 μM of compound 4; read-out: POC
FLT3(D835V) = molecular target: T2, FLT3(D835V) (Homo sapiens, UniProt P36888, D835V); assay: KINOMEscan; format: binding; conditions: 1 μM of compound 4; read-out: POC
T2 construct: purchased Eurofins DiscoverX Corporation

[1] = Metabolic stability in Human Liver Microsomes (HLM); format: in vitro ADME
Description: Metabolic stability in Human Liver Microsomes (HLM). Pooled liver microsomes from humans (male) were purchased from Sekisui XenoTech, LLC, Kansas City, KS, USA. Metabolic stability assays were performed in the presence of an NADPH-regenerating system consisting of 5 mM glucose-6-phosphate, 5 U/mL glucose-6-phosphate dehydrogenase, and 1 mM NADP^+. Liver microsomes (20 mg/mL), NADPH-regenerating system, and 4 mM MgCl2·6 H2O in 0.1 M TRIS-HCl-buffer (pH 7.4) were preincubated for 5 min at 37° C. and 750 rpm on a shaker. The reaction was started by adding the preheated compound at 10 mM resulting in a final concentration of 0.1 mM. The reaction was quenched at selected time points (0, 10, 20, 30, 60, and 120 min) by pipetting 100 μL of internal standard (ketoprofen) at a concentration of 150 μM in acetonitrile. The samples were vortexed for 30 s and centrifuged (21910 relative centrifugal force, 4° C., 20 min). The supernatant was used directly for LC-MS analysis. All compound incubations were conducted at least in triplicates. Additionally, a negative control containing BSA (20 mg/mL) instead of liver microsomes and a positive control using verapamil instead of compound were performed. A limit of 1% organic solvent during incubation was not exceeded. […]

CSNK1G1 = CSNK1G1 (Homo sapiens, UniProt Q9HCP0); assay: KINOMEscan; format: binding; conditions: 1 μM of compound 4; read-out: POC
MELK = MELK (Homo sapiens, UniProt Q14680); assay: KINOMEscan; format: binding; conditions: 1 μM of compound 4; read-out: POC
IKK-alpha = IKK-alpha (Homo sapiens, UniProt O15111); assay: KINOMEscan; format: binding; conditions: 1 μM of compound 4; read-out: POC
AKT1 = AKT1 (Homo sapiens, UniProt P31749); assay: KINOMEscan; format: binding; conditions: 1 μM of compound 4; read-out: POC
AKT2 = AKT2 (Homo sapiens, UniProt P31751); assay: KINOMEscan; format: binding; conditions: 1 μM of compound 4; read-out: POC
FAK = molecular target: T3, FAK (Homo sapiens, UniProt Q05397); assay: KINOMEscan; format: binding; conditions: 1 μM of compound 4; read-out: POC
T3 construct: purchased Eurofins DiscoverX Corporation

CAMKK1 = CAMKK1 (Homo sapiens, UniProt Q8N5S9); assay: KINOMEscan; format: binding; conditions: 1 μM of compound 4; read-out: POC
MRCKA = MRCKA (Homo sapiens, UniProt Q5VT25); assay: KINOMEscan; format: binding; conditions: 1 μM of compound 4; read-out: POC
[2] = molecular target: T4, EGFR(L747-T751del + Sins) (Homo sapiens, UniProt P00533, DEL747-750/T751S); assay: KINOMEscan; format: binding; conditions: 1 μM of compound 4; read-out: POC
T4 construct: purchased Eurofins DiscoverX (KINOMEscan service)

MKK7 = MKK7 (Homo sapiens, UniProt O14733); assay: KINOMEscan; format: binding; conditions: 1 μM of compound 4; read-out: POC
SNRK = molecular target: T5, SNRK (Homo sapiens, UniProt Q9NRH2); assay: KINOMEscan; format: binding; conditions: 1 μM of compound 4; read-out: POC
T5 construct: purchased Eurofins DiscoverX (KINOMEscan service)

TAK1 = molecular target: T6, TAK1 (Homo sapiens, UniProt O43318); assay: KINOMEscan; format: binding; conditions: 1 μM of compound 4; read-out: POC
T6 construct: purchased Eurofins DiscoverX Corporation

ROS1 = molecular target: T7, ROS1 (Homo sapiens, UniProt P08922); assay: KINOMEscan; format: binding; conditions: 1 μM of compound 4; read-out: POC
T7 construct: purchased Eurofins DiscoverX Corporation (KINOMEscan screening service)

PAK7 = molecular target: T8, PAK7 (Homo sapiens, UniProt Q9P286); assay: KINOMEscan; format: binding; conditions: 1 μM of compound 4; read-out: POC
T8 construct: purchased Eurofins DiscoverX Corporation (KINOMEscan)

MERTK = MERTK (Homo sapiens, UniProt Q12866); assay: KINOMEscan; format: binding; conditions: 1 μM of compound 4; read-out: POC
EPHB4 = molecular target: T9, EPHB4 (Homo sapiens, UniProt P54760); assay: KINOMEscan; format: binding; conditions: 1 μM of compound 4; read-out: POC
T9 construct: purchased Eurofins DiscoverX (KINOMEscan service)

NEK10 = NEK10 (Homo sapiens, UniProt Q6ZWH5); assay: KINOMEscan; format: binding; conditions: 1 μM of compound 4; read-out: POC
PAK4 = molecular target: T10, PAK4 (Homo sapiens, UniProt O96013); assay: KINOMEscan; format: binding; conditions: 1 μM of compound 4; read-out: POC
T10 construct: purchased Eurofins DiscoverX Corporation (KINOMEscan)

[3] = molecular target: JAK3(JH1domain-catalytic) (Homo sapiens, UniProt P52333); assay: KINOMEscan; format: binding; conditions: 1 μM of compound 4; read-out: POC
CDKL1 = CDKL1 (Homo sapiens, UniProt Q00532); assay: KINOMEscan; format: binding; conditions: 1 μM of compound 4; read-out: POC

T4 sequence (P00533 with tags, fused parts or gaps DEL747-750/T751S limits assumed): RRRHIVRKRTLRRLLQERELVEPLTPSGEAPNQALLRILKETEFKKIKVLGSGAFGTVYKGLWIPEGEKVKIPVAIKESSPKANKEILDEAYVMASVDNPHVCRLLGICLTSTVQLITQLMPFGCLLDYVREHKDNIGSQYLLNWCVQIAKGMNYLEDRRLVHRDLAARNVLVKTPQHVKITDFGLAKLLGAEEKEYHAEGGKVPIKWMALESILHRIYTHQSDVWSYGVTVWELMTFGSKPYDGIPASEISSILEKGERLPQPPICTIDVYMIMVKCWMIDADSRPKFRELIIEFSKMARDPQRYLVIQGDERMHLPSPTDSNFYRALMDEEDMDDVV
MRCKA, sequence (Q5VT25 whole entry): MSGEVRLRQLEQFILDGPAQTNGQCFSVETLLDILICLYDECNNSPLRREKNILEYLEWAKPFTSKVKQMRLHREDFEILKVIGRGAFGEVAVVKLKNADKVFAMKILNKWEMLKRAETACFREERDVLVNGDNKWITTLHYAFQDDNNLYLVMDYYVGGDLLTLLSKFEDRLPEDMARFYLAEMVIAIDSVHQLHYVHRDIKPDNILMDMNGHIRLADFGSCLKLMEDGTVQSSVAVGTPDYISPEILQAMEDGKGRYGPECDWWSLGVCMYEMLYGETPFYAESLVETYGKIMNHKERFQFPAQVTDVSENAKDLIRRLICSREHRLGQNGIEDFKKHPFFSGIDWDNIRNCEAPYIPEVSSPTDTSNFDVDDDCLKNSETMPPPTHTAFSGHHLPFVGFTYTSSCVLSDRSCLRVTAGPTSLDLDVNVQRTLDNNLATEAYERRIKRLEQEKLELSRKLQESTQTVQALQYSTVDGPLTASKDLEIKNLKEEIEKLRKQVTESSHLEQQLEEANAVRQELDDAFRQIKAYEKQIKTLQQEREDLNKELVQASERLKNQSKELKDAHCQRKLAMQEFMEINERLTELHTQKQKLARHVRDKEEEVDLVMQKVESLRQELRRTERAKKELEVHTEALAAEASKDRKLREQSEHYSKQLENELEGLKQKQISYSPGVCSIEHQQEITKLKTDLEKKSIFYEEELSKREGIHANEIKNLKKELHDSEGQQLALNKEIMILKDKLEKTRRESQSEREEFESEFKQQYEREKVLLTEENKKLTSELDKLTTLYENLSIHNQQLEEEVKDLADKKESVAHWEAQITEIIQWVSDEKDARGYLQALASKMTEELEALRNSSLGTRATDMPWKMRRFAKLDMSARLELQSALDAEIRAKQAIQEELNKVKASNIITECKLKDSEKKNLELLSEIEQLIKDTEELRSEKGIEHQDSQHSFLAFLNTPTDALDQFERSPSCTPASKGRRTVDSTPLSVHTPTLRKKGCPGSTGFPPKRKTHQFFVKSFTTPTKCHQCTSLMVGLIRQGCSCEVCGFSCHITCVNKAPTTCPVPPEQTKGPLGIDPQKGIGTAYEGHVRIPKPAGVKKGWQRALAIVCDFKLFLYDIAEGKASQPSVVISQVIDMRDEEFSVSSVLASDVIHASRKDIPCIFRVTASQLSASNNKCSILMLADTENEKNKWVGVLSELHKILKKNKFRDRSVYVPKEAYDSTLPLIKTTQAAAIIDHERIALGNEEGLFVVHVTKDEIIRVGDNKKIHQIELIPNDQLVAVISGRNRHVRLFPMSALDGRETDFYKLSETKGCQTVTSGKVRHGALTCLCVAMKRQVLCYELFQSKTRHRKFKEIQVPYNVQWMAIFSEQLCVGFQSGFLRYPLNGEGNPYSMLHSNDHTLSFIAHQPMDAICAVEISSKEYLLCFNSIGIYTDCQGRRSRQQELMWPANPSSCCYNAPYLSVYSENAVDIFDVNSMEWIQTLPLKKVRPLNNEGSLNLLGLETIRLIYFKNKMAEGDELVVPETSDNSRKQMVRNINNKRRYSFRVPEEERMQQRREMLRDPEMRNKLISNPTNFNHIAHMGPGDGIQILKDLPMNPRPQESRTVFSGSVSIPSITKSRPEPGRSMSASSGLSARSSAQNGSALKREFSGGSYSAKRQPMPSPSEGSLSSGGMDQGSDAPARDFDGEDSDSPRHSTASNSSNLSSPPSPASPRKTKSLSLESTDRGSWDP
NEK10, sequence (Q6ZWH5 whole entry): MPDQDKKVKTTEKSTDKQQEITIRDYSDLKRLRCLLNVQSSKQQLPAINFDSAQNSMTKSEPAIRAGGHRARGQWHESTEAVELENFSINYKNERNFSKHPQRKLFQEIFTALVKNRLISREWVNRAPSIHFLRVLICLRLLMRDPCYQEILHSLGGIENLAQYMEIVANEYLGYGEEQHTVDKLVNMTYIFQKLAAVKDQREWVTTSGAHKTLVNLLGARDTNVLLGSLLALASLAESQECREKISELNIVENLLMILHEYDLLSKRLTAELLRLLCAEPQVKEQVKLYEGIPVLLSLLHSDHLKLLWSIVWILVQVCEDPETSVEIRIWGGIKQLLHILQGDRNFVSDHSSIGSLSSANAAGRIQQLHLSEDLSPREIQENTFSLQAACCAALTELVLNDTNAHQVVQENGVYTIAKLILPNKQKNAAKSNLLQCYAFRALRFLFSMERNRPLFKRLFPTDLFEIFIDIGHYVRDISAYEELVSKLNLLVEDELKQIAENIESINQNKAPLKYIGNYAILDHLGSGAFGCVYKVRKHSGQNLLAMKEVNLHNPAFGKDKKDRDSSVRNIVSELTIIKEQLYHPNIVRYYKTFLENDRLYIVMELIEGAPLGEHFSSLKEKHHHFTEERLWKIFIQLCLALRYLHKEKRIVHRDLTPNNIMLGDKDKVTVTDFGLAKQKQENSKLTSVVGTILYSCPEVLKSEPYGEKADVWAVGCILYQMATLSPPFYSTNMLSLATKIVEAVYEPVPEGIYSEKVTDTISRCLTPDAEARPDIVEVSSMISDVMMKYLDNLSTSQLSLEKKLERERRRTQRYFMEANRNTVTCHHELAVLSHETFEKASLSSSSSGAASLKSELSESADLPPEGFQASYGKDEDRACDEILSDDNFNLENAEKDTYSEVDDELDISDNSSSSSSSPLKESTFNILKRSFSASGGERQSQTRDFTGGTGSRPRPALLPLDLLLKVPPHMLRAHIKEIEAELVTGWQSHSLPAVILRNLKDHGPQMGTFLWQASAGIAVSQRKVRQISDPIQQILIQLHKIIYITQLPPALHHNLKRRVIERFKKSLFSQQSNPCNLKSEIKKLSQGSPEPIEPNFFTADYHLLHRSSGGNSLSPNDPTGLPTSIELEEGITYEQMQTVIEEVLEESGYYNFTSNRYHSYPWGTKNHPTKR
PRKCD, sequence (Q05655 whole entry): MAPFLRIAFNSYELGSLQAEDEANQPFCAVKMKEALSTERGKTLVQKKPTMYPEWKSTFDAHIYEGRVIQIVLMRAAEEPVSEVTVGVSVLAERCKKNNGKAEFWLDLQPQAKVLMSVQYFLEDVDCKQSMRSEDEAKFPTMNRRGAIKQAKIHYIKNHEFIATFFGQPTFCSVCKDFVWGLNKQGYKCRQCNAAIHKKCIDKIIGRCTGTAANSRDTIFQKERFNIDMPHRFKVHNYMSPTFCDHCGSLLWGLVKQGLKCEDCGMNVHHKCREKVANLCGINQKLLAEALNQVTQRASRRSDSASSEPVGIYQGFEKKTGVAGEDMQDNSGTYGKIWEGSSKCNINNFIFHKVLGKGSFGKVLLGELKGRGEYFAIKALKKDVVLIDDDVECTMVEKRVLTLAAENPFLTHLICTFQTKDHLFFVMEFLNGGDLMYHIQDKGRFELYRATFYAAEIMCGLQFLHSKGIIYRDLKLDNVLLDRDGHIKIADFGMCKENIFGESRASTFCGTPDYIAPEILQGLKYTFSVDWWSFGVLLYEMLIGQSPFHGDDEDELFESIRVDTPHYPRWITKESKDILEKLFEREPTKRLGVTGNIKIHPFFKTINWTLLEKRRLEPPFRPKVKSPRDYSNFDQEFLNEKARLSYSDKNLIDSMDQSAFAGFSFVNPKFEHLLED
T1 sequence (Q96Q40 whole entry): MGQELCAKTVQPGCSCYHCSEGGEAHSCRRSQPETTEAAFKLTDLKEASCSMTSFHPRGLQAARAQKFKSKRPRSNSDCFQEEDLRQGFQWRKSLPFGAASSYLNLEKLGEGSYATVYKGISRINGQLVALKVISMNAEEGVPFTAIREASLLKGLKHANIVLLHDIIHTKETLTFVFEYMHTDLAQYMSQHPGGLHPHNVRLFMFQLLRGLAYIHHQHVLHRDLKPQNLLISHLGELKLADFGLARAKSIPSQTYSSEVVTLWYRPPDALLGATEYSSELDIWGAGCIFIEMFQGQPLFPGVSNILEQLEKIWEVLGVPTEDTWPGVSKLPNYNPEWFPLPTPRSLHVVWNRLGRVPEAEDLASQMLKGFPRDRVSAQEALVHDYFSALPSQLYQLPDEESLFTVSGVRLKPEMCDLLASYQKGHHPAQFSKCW
CAMKK1, sequence (Q8N5S9 whole entry): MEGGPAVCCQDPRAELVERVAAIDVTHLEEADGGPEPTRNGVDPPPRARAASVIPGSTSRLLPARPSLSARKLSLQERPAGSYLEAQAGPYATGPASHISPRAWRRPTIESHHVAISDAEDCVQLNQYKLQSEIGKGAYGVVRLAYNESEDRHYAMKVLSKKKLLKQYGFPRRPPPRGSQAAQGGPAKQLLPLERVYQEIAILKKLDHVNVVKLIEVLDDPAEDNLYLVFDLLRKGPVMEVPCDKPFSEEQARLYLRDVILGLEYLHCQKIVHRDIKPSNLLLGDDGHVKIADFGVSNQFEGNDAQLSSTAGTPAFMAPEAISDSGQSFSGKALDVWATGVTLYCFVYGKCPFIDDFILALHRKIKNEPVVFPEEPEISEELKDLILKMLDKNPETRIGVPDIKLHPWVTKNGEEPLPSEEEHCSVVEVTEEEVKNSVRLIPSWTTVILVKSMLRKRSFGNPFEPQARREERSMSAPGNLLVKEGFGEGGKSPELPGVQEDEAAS

C=CC(=O)Nc1ccc(OC)c(Nc2cc(-c3[nH]c(CC)nc3-c3cccc(NC(=O)c4cccc5c4NC(=O)c4ccccc4N5)c3)ccn2)c1 [Compound 4, N-(3-(5-(2-((5-Acrylamido-2-methoxyphenyl)amino)pyridin-4-yl)-2-ethyl-1H-imidazol-4-yl)phenyl)-11-oxo-10,11-dihydro-5H-dibenzo[b,e][1,4]diazepine-9-carboxamide]
remaining binding at 1 µM (PRKCD): 55% | remaining binding at 1 µM (PFTAIRE2): 84% | remaining binding at 1 µM (JNK3): 53% | remaining binding at 1 µM (FLT3(D835V)): 100% | Metabolic stability in liver microsomes [1]: metabolically stable | remaining binding at 1 µM (CSNK1G1): 93% | remaining binding at 1 µM (MELK): 100% | remaining binding at 1 µM (IKK-alpha): 100% | remaining binding at 1 µM (AKT1): 89% | remaining binding at 1 µM (AKT2): 91% | remaining binding at 1 µM (FAK): 99% | remaining binding at 1 µM (CAMKK1): 85% | remaining binding at 1 µM (MRCKA): 0% | remaining binding at 1 µM [2]: 7.6% | remaining binding at 1 µM (MKK7): 31% | remaining binding at 1 µM (SNRK): 82% | remaining binding at 1 µM (TAK1): 95% | remaining binding at 1 µM (ROS1): 80% | remaining binding at 1 µM (PAK7): 77% | remaining binding at 1 µM (MERTK): 83% | remaining binding at 1 µM (EPHB4): 100% | remaining binding at 1 µM (NEK10): 86% | remaining binding at 1 µM (PAK4): 89% | remaining binding at 1 µM [3]: 100% | remaining binding at 1 µM (CDKL1): 100%
